Assay results as given in patent US10618887B2 (Sunesis Pharmaceuticals, Inc., priority 2012, dated 2020).

Key:
BTK = molecular target: T1, BTK (Homo sapiens, UniProt Q06187); experiment: In vitro BTK kinase assay: BTK-POLYGAT-LS assay; assay type: biochemical; settings: ATP 10 uM, polyGAT 100 nM, BTK 0.25 nM, 30 minutes; read-out: IC50 against BTK (polyGAT assay)
T1 construct: purchased Upstate 14-552
Protocol: In vitro BTK kinase assay: BTK-POLYGAT-LS ASSAY. The purpose of the BTK in vitro assay was to determine compound potency against BTK through the measurement of IC50. Compound inhibition was measured after monitoring the amount of phosphorylation of a fluorescein-labeled polyGAT peptide (Invitrogen PV3611) in the presence of active BTK enzyme (Upstate 14-552), ATP, and inhibitor. The BTK kinase reaction was done in a black 96 well plate (costar 3694). For a typical assay, a 24 uL aliquot of an ATP/peptide master mix (final concentration; ATP 10 uM, polyGAT 100 nM) in kinase buffer (10 mM Tris-HCl pH 7.5, 10 mM MgCl2, 200 uM […], 5 mM DTT, 0.01% Triton X-100, and 0.2 mg/ml casein) was added to each well. Next, 1 uL of a 4-fold, 40× compound titration in 100% DMSO solvent was added, followed by adding 15 uL of BTK enzyme mix in 1× kinase buffer (with a final concentration of 0.25 nM). The assay was incubated for 30 minutes before being stopped with 28 uL of a 50 mM EDTA solution. Aliquots (5 uL) of the kinase reaction were transferred to a low volume white 384 well plate (Corning 3674), and 5 uL of a 2× detection buffer (Invitrogen PV3574, with 4 nM Tb-PY20 antibody, Invitrogen PV3552) was added. The plate was covered and incubated for 45 minutes at room temperature. Time resolved fluorescence (TRF) on Molecular Devices M5 (332 nm excitation; 488 nm emission; 518 nm fluorescein emission) was measured. IC50 values were calculated using a four parameter fit with 100% enzyme activity determined from the DMSO control and 0% activity from the EDTA control.

human PXR = molecular target: T2, human PXR (Homo sapiens, UniProt O75469); experiment: PXR nuclear receptor activation reporter gene assay in human DPX2 cells; assay type: cell-based; settings: 24 hr treatment
T2 construct: expressed in transfected cells; host or cells: DPX2 tumor cell line
T2 sequence (O75469 1-434): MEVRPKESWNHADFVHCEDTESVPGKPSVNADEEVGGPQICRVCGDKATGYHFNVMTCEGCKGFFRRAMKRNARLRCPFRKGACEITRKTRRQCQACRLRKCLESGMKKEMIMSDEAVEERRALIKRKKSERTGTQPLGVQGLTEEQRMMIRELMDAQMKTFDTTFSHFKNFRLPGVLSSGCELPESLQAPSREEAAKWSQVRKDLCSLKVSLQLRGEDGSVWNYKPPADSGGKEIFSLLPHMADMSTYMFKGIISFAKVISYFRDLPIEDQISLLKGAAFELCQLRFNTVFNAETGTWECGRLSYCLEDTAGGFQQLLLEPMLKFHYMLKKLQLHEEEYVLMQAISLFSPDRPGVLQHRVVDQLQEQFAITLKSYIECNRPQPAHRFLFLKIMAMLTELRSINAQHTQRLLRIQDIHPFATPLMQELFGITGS
Source text: Study Protocol to Determine Activation of the PXR Nuclear Receptor in Human DPX2 Cells
Based on this pathway of CYP3A4 induction, cell-based PXR reporter gene assay is commonly used to screen new molecular entities (NMEs) in early drug discovery stage, for their potential to induce CYP3A4 (Luo G, et al.; Drug Metab Dispos. 2002 July; 30(7):795-804.) Studies were designed to evaluate the effect of new molecular entities (NMEs) on the activation of human PXR in DPX2 cells. Cell lines stably transfected with the PXR nuclear receptor and corresponding response elements were seeded into 96-well plates. Twenty-four hr after seeding, cells were treated with 6 distinct concentrations of NMEs in triplicate wells (see below), and cells then returned to the incubator for an additional 24 hr. At the end of this incubation period, the number of viable cells/well were determined using Promega's Cell Titer Fluor cytotoxicity assay. Following this assay, Promega's ONE-Glo was added to the same wells and reporter gene activity assessed.
The test system consisted of the stably transformed DPX2 tumor cell line plated on 96-well microtiter plates. An expression vector harboring the PXR nuclear receptor plus the appropriate enhancers and promoters linked to the luciferase reporter gene have been stably integrated into these tumor cell lines. Receptor activation was assessed by monitoring reporter gene activity, and by comparing the results to vehicle-treated cells. Positive controls consist of cells treated with 6 different concentrations (0.1, 0.5, 1, 5, 10, and 20 μM) of rifampicin. In this manner, compounds activating PXR can be easily and rapidly identified. Since stably-integrated cell lines were used, it is possible to observe from 3- to 70-fold receptor activation.
Data processed using MS-Excel was calculated as the mean (n=3) and % CV of the fold PXR activation relative to vehicle-treated cells at each of the 6 different doses. All activation data was normalized to the number of viable cells/well. Results were also expressed as a percentage of the response given by the appropriate positive control at a 10 μM dose. EC50 and Emax values were derived for test compounds that give receptor activation using nonlinear regression of typical log dose-response curves (Prism V5.0c, GraphPad Software, San Diego, Calif.).
d) New Molecular Entities (NMEs): Test Compounds were Tested at 0.05, 0.1, 0.5, 1, 2.5, and 10 μM

[1] = molecular target: T3, hERG (human ether-à-go-go-related gene) potassium channel (Homo sapiens, UniProt Q12809); experiment: FastPatch hERG inhibition assay (QPatch HT, HEK293 cells stably transfected with hERG cDNA); assay type: cell-based; settings: for IC50: HEK293 cells, automated patch clamp, IC50 estimated from hERG inhibition data
T3 construct: host or cells: HEK293
T3 sequence (Q12809 whole entry): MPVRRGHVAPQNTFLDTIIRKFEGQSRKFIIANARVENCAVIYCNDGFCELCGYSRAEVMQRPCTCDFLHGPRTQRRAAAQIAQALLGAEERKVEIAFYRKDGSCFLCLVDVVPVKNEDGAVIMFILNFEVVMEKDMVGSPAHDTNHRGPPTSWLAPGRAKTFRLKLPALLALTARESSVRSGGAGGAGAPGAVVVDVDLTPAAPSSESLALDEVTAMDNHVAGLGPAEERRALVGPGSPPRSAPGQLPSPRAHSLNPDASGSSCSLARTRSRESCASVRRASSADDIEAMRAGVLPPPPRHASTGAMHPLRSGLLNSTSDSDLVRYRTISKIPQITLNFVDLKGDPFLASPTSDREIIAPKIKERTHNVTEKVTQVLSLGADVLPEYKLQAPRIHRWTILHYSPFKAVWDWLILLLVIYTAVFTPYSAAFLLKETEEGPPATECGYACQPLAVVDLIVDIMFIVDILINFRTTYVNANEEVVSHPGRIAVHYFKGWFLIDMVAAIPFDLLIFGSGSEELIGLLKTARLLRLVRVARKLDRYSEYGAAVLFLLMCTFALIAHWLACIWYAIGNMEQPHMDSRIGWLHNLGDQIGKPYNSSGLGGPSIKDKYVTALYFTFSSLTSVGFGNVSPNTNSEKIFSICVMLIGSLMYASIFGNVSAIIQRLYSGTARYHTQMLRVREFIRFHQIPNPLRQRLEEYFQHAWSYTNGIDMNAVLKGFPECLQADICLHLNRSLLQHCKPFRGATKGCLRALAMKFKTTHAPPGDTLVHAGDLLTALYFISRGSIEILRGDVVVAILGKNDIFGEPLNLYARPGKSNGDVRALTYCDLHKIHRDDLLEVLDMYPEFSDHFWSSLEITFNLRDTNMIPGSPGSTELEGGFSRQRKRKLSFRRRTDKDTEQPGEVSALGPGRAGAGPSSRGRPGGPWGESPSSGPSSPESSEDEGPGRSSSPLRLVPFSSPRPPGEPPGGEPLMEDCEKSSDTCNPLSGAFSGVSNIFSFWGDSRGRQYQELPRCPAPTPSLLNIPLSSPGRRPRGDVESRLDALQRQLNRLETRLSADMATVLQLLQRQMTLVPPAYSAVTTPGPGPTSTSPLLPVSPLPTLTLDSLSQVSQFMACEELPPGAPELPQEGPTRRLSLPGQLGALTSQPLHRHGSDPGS
Source text: (§1) Protocol for FastPatch hERG Inhibition Assay:
(§2) The cardiac potassium channel, hERG, is responsible for a rapid delayed rectifier current (IKr) in human ventricle and inhibition of IKr is the most common cause of cardiac action potential prolongation by non-cardiac drugs (see, e.g., Weirich and Antoni, Basic Res. Cardiol., 93, Suppl. 1, 125-32, 1998; Yap and Camm, Clin. Exp. Allergy, 29, Suppl. 3, 174-81, 1999). Increased action potential duration has been cited as a factor in causing prolongation of the QT interval that has been associated with a dangerous ventricular arrhythmia, torsade de pointes (Brown and Rampe, Pharmaceutical News, 7, 15-20, 2000).
(§3) The in vitro effects of provided compounds was investigated on the hERG (human ether-à-go-go-related gene) potassium channel current (a surrogate for IKr, the rapidly activating, delayed rectifier cardiac potassium current) expressed in human embryonic kidney (HEK293) cells stably transfected with hERG cDNA. Cells were placed in HEPES-buffered physiological saline solution in a glass-lined 96-well plate and loaded with appropriate amounts of test and control solutions for a duration of a 3-minute exposure at each concentration. Test compound was diluted in 0.3% DMSO. An automated parallel patch clamp system, QPatch HT (Sophion Bioscience A/S, Denmark), was used to evaluate at various concentrations (e.g., 10 μM). The IC50 values was estimated based on the hERG inhibition data. The study was performed at ChanTest (14656 Neo Parkway, Cleveland, Ohio). The QPatch screen is further described by Janzen and Bernasconi (eds.), High Throughput Screening, Methods and Protocols, Second Edition, vol. 565, chapter 10, pg. 209-223, 2009.

hERG potassium channel = molecular target: T4, hERG potassium channel (Homo sapiens, UniProt Q12809); experiment: as above; assay type: cell-based; settings: human, HEK293 cells stably transfected with hERG cDNA; 10 uM, HEK293 cells, automated patch clamp
T4 construct: host or cells: HEK293
T4 sequence (Q12809 whole entry): as above
Source text: as §1, §2, §3

T1 sequence (Q06187 whole entry): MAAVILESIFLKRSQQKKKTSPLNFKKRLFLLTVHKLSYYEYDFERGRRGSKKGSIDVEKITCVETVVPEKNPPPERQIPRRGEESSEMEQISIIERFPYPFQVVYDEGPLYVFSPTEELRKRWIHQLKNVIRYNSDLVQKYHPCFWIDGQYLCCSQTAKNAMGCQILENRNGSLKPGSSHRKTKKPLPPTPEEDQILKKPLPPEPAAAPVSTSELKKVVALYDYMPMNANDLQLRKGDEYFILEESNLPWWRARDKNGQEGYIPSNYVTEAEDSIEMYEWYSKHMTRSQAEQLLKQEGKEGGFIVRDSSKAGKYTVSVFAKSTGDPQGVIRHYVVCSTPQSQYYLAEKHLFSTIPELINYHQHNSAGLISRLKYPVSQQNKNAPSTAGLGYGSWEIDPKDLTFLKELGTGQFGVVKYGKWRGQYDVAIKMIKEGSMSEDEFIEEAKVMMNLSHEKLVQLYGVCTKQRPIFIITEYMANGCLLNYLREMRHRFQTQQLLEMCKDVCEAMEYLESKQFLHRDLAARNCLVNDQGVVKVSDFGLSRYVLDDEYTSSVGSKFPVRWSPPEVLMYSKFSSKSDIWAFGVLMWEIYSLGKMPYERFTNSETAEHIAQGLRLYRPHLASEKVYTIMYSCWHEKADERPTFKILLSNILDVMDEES

SMILES	IC50 (BTK) [nM]	PXR % induction (relative to 10 uM rifampin) (human PXR) [%]	IC50 [1] [nM]	inhibition at 3 min, 10 µM (hERG potassium channel) [%]	observable activity in the hERG assay at 10 uM ([1]; 10 uM, no IC50 available)
NC(=O)[C@H]1CCN(c2ncnc(N)c2F)C[C@@H]1N1CCC[C@@H](Nc2cc(Cl)cc(C(F)(F)F)c2)C1=O [Compound I-1, (3R,3′R,4′S)-1′-(6-amino-5-fluoropyrimidin-4-yl)-3-((3-chloro-5-(trifluoromethyl)phenyl)amino)-2-oxo-[1,3′-bipiperidine]-4′-carboxamide]	0.73	62	15600		
CN(C)C(=O)[C@H]1CCN(c2ncnc(N)c2F)C[C@@H]1N1CCC[C@@H](Nc2cc(Cl)cc(C(F)(F)F)c2)C1=O [Compound I-3, (3R,3′R,4′S)-1′-(6-amino-5-fluoropyrimidin-4-yl)-3-((3-chloro-5-(trifluoromethyl)phenyl)amino)-N,N-dimethyl-2-oxo-[1,3′-bipiperidine]-4′-carboxamide]	2.07	47	14600		
NC(=O)[C@H]1CCN(c2ncnc(N)c2F)C[C@@H]1N1CCC[C@@H](Nc2cc(Cl)cc(OC(F)(F)F)c2)C1=O [Compound I-6]	< 1			< 20	
NC(=O)[C@H]1CCN(c2ncnc(N)c2F)C[C@@H]1N1CCC[C@@H](Nc2cc(F)cc(C(F)(F)F)c2)C1=O [Compound I-5, (3R,3′R,4′S)-1′-(6-amino-5-fluoropyrimidin-4-yl)-3-((3-fluoro-5-(trifluoromethyl)phenyl)amino)-2-oxo-[1,3′-bipiperidine]-4′-carboxamide]	1.6	90			no observable activity
CN1CCN(C(=O)[C@H]2CCN(c3ncnc(N)c3F)C[C@@H]2N2CCC[C@@H](Nc3cc(Cl)cc(C(F)(F)F)c3)C2=O)CC1 [Compound I-7]	1.2			65	
NC(=O)[C@H]1CCN(c2ncnc(N)c2F)C[C@@H]1N1CCC[C@@H](Nc2cc(F)cc(Cl)c2)C1=O [Compound I-2]	0.68	42	30000		
CNC(=O)[C@H]1CCN(c2ncnc(N)c2F)C[C@@H]1N1CCC[C@@H](Nc2cc(Cl)cc(C(F)(F)F)c2)C1=O [Compound I-4]	0.63	67	13700		
Nc1ncnc(N2CCC[C@@H](N3CCC[C@@H](Nc4cc(Cl)cc(C(F)(F)F)c4)C3=O)C2)c1F [I^C, reference compound]	2	95	1180	87	
